Series [1] in a line: Plasma Stability Test (IV dosing of prodrug, HPLC analysis of blood plasma). The conditions noted are these: dogs, IV at 2 mg/mL, HPLC analysis of blood plasma for 4 hours following dosing. The series is classed as in vivo. On the procedure:
The prodrug (3Z)-3-[(3,5-dimethyl-1H-pyrrol-2-yl)-methylidene]-1-(1-pyrrolidinylmethyl)-1,3-dihydro-2H-indol-2-one was administered IV at 2 mg/mL to dogs. Levels of both prodrug and drug (3(Z)-3-[(3,5-dimethyl-1H-pyrrol-2-yl)-methylidene]-1,3-dihydro-2H-indol-2-one) were followed by HPLC analysis of blood plasma for 4 hours following dosing.

Molecules are shown by their SMILES.

`Cc1cc(C)c(/C=C2\C(=O)N(C(=O)CNC(=O)OCc3ccccc3)c3ccccc32)[nH]1` came in with a melting point of 193 to 196 °C.

With `Cc1cc(C)c(/C=C2\C(=O)N(CN3CCCC3)c3ccccc32)[nH]1` [Example 14, (3Z)-3-[(3,5-dimethyl-1H-pyrrol-2-yl)-methylidene]-1-(1-pyrrolidinylmethyl)-1,3-dihydro-2H-indol-2-one], in series [1], the “half-life for conversion of the prodrug to drug” value turned out to be 7.3 min and the “prodrug converted into drug (from area under the curve of drug concentration vs. time)” value was found to be 80%.

For the compound `CC(=O)OC(C)N1C(=O)/C(=C\c2[nH]c(C)cc2C)c2ccccc21` (stereo not drawn), the melting point was 107 to 110 °C.

Compound `Cc1cc(C)c(/C=C2\C(=O)N(COC(=O)CCC(=O)O)c3ccccc32)[nH]1` gave a melting point of 160 to 162 °C.

In turn, `Cc1cc(C)c(/C=C2\C(=O)N(CO)c3ccccc32)[nH]1` returned a melting point of 200 to 202 °C.

As a reminder, the melting point is the temperature of the solid-liquid transition.

Values taken from patent publication US7112603B2, “Prodrugs of 3-(pyrrol-2-ylmethylidene)-2-indolinone derivatives” (Agouron Pharmaceuticals, Inc., priority 2000, dated 2006).
